The values below come from US6046217A, “2,3,5-trisubstituted pyridines as inhibitors of cyclooxygenase-2” (Merck Frosst Canada & Co., priority 1998, dated 2000).

For test [1], the target named is T1, COX-2 (Homo sapiens, UniProt P35354).
T1 sequence (P35354 18-604): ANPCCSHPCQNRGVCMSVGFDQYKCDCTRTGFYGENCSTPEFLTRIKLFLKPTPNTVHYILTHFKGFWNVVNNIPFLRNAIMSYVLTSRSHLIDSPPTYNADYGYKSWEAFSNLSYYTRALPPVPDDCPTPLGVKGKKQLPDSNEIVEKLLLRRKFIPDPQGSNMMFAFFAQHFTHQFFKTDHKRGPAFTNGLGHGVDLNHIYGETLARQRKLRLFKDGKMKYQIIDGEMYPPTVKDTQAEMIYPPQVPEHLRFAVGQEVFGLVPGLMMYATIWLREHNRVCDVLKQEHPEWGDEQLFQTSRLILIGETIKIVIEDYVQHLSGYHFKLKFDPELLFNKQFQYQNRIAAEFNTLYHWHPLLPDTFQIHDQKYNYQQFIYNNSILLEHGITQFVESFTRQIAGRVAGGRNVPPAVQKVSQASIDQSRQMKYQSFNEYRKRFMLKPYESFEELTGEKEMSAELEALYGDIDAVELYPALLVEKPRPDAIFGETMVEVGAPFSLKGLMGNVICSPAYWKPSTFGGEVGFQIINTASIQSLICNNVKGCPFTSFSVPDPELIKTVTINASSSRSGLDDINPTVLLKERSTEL
The test is described as follows: cell-based. To be noted: CHO[hCOX-2] cells, 10 μM AA, 15 min preincubation; read-out: COX-2 (IC50 mM) CHO.

The target in test [2] is T1, COX-2. Put plainly: cell-based. To be noted: human whole blood, LPS-induced PGE2, 24 h; read-out: COX-2 (IC50 mM) HWB. From the text:
(§1) As well, platelets in whole blood contain a large amount of the COX-1 enzyme. Immediately following blood clotting, platelets are activated through a thrombin-mediated mechanism. This reaction results in the production of thromboxane B2 (TxB2) via activation of COX-1. Thus, the effect of test compounds on TxB2 levels following blood clotting can be examined and used as an index for COX-1 activity. Therefore, the degree of selectivity by the test compound can be determined by measuring the levels of PGE2 after LPS induction (COX-2) and TxB2 following blood clotting (COX-1) in the same assay.
Fresh blood is collected in heparinized tubes by venipuncture from both male and female volunteers. The subjects have no apparent inflammatory conditions and have not taken any NSAIDs for at least 7 days prior to blood collection. Plasma is immediately obtained from a 2mL blood aliquot to use as blank (basal levels of PGE2). The remaining blood is incubated with LPS (100 μg/ml final concentration, Sigma Chem, #L-2630 from E. coli; diluted in 0.1% BSA (Phosphate buffered saline) for 5 minutes at room temperature. Five hundred […] aliquots of blood are incubated with either 2 μL of vehicle (DMSO) or 2 μL of a test compound at final concentrations varying from 10 nM to 30 μM for 24 hours at 37° C. At the end of the incubation, the blood is centrifuged at 12,000×g for 5 minutes to obtain plasma. A 100 μL aliquot of plasma is mixed with 400 μL of methanol for protein precipitation. The supernatant is obtained and is assayed for PGE2 using a radioimmunoassay kit (Amersham, RPA#530) after conversion of PGE2 to its methyl oximate derivative according to the manufacturer's procedure. […]

In test [3] the target is T2, COX-1 (Homo sapiens, UniProt P23219). The test is described as follows: Human whole blood assay, COX-1 (clotting-induced TxB2 production). It counts as cell-based. On the set-up: platelets in whole blood contain a large amount of the COX-1 enzyme; endogenous in cells; host or cells: platelets in fresh human whole blood, clotting.
T2 sequence (P23219 24-599): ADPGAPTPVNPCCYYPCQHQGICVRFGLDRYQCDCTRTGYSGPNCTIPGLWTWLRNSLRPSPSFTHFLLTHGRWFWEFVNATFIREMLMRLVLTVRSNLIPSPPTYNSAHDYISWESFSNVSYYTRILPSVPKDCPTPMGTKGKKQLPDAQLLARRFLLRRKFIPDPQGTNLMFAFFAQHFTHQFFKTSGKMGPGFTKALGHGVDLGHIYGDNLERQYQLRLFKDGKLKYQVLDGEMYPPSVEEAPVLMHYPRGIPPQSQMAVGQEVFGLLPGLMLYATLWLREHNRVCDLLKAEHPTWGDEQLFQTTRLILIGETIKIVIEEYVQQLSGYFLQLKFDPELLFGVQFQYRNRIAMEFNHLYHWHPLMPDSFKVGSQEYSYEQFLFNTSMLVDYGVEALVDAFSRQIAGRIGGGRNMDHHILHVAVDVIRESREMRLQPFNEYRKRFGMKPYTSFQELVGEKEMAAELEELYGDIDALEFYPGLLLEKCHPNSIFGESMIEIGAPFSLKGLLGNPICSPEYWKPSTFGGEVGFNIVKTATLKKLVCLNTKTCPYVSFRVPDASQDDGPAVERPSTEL
Text: as §1
Fresh blood is collected into vacutainers containing no anticoagulants. […] The tubes are vortexed and incubated at 37° C. for 1 hour to allow blood to clot. At the end of incubation, serum is obtained by centrifugation (12,000×g for 5 min.). A 100 μL aliquot of serum is mixed with 400 μL of methanol for protein precipitation.

Test [4] deals with T2, COX-1. Put plainly: Assay of COX-1 activity from U937 cell microsomes (PGE2). The settings on record: 15 min preincubation. More on the design: Assay of COX-1 Activity from U937 Cell Microsomes; endogenous in cells; host or cells: U937 cells, 100,000 x g microsomal pellet. Type of test: biochemical. Here is the method:
U 937 cells are pelleted by centrifugation at 500×g for 5 min and washed once with phosphate-buffered saline and repelleted. Cells are resuspended in homogenization buffer consisting of 0.1 M Tris-HCl, pH 7.4, 10 mM EDTA, […] leupeptin, 2 μg/ml soybean trypsin inhibitor, 2 μg/ml aprotinin and 1 mM phenyl methyl sulfonyl fluoride. The cell suspension is sonicated 4 times for 10 sec and is centrifuged at 10,000×g for 10 min at 4° C. The supernatant is centrifuged at 100,000×g for 1 hr at 4° C. The 100,000×g microsomal pellet is resuspended in 0.1 M Tris-HCl, pH 7.4, 10 mM EDTA to approximately 7 mg protein/ml and stored at -80° C.
Microsomal preparations are thawed immediately prior to use, subjected to a brief sonication, and then diluted to a protein concentration of 125 μg/ml in 0.1 M Tris-HCl buffer, pH 7.4 containing 10 mM EDTA, 0.5 mM phenol, 1 mM reduced glutathione and 1 μM hematin. Assays are performed in duplicate in a final volume of 250 μl. Initially, 5 μl of DMSO vehicle or drug in DMSO are added to 20 μl of 0.1 M Tris-HCl buffer, pH 7.4 containing 10 mM EDTA in wells of a 96-deepwell polypropylene titre plate. 200 μl of the microsomal preparation are then added and pre-incubated for 15 min at room temperature before addition of 25 μl of […] arachidonic acid in […] Tris-HCl and 10 mM EDTA, pH 7.4. Samples are incubated for 40 min at room temperature and the reaction is stopped by the addition of 25 μl of 1 N HCl. Samples are neutralized with 25 μl of 1 N NaOH prior to quantitation of PGE2 content by radioimmunoassay (Dupont-NEN or Amersham assay kits). Cyclooxygenase activity is defined as the difference between PGE2 levels in samples incubated in the presence of arachidonic acid and ethanol vehicle.
In the assay, inhibition is determined by measuring the amount of prostaglandin E2 (PGE2) synthesized in the presence of arachidonic acid, cyclooxygenase-1 or cyclooxygenase-2 and a putative inhibitor.

[5] abbreviates: human whole blood, clotting-induced TxB2, 1 h, read-out: COX-1 (IC50 mM) HWB.
[6] abbreviates: U-937 cell microsomes, read-out: COX-1 (IC50 mM) U-937.

Molecules are shown by their SMILES. Like-named read-outs stand apart in the source and are kept apart here.

Consider `C[C@@H](Oc1ncc(C(F)(F)F)cc1-c1ccc(S(C)(=O)=O)cc1)C(C)(C)O` [Example 17, 2-((2R)-3-Hydroxy-3-methyl-2-butyloxy)-3-(4-methylsulfonyl)phenyl-5-trifluoromethylpyridine], for which the 50% inhibitory concentration (IC50) at COX-2 [1] is 0.38 µM; on COX-2 [2] it was less than 0.0004 mM; on COX-1 [3] (setting [5]), more than 0.1 mM; on COX-1 [4] (setting [6]), more than 0.01 mM.
On the same counts, the results for `C[C@H](CO)Oc1ncc(C(F)(F)F)cc1-c1ccc(S(C)(=O)=O)cc1` [Example 28, 2-((2R)-1-Hydroxy-2-propyloxy)-3-(4-methylsulfonyl)phenyl-5-trifluoromethylpyridine] are 0.04 µM, 0.0112 mM, more than 0.1 mM and more than 0.01 mM.
On the same counts, the results for `CC(C)(O)/C=C\c1ncc(Cl)cc1-c1ccc(S(C)(=O)=O)cc1` [Example 51, 5-Chloro-2-((Z)-3-Hydroxy-3-methyl-1-butenyl)-3-(4-methylsulfonyl)phenylpyridine] are 0.01 µM, 0.0008 mM, 0.01 mM and 0.001 to 0.003 mM.
On to `CS(=O)(=O)c1ccc(-c2cc(C(F)(F)F)cnc2OCC2(O)CCCC2)cc1` [Example 13, 2-(1-Hydroxycyclopentyl)methoxy-3-(4-methylsulfonyl)phenyl-5-trifluoromethylpyridine], for which the half-inhibitory concentration (IC50) on COX-1 [3] (setting [5]) stood at 0.096 mM; at COX-1 [4] (setting [6]), 0.01 mM.
For `CCC(O)(CC)[C@@H](C)Oc1ncc(C(F)(F)F)cc1-c1ccc(S(C)(=O)=O)cc1` [Example 21, 2-((2R)-3-Ethyl-3-hydroxy-2-pentyloxy)-3-(4-methylsulfonyl)phenyl-5-trifluoromethylpyridine], the half-maximal inhibitory concentration (IC50) is 0.2 µM at COX-2 [1], 0.0047 mM on COX-2 [2], more than 0.1 mM at COX-1 [3] (setting [5]) and more than 0.01 mM at COX-1 [4] (setting [6]).
With `C[C@@H](O)[C@@H](C)Oc1ncc(C(F)(F)F)cc1-c1ccc(S(C)(=O)=O)cc1` [Example 23, 2-((2R,3R)-3-Hydroxy-2-butyloxy)-3-(4-methylsulfonyl)phenyl-5-trifluoromethylpyridine], the IC50 was 0.05 µM at COX-2 [1]; 0.0005 mM at COX-2 [2]; more than 0.1 mM against COX-1 [3]; more than 0.01 mM at COX-1 [4] (COX-1 (IC50 mM) U-937, U-937 cell microsomes).
As to `C[C@]1(O)CCC[C@H]1Oc1ncc(C(F)(F)F)cc1-c1ccc(S(C)(=O)=O)cc1` (single isomer, unassigned) [Example 31, (+)-2-(cis-2-Hydroxy-2-methylcyclopentyloxy)-3-(4-methylsulfonyl)phenyl-5-trifluoromethylpyridine], the IC50 at COX-1 [3] (setting [5]) is more than 0.1 mM; on COX-1 [4] (setting [6]), 0.037 mM.
On the same counts, the results for `CC(C)(O)CSc1ncc(C(F)(F)F)cc1-c1ccc(S(C)(=O)=O)cc1` [Example 43, 2-(2-Hydroxy-2-methyl-1-thiopropyloxy)-3-(4-methylsulfonyl)phenyl-5-trifluoromethylpyridine] are 0.039 mM and 0.003 to 0.01 mM.
With `C[C@]1(O)CCC[C@H]1Oc1ncc(C(F)(F)F)cc1-c1ccc(S(C)(=O)=O)cc1` (single isomer, unassigned) [Example 32, (-)-2-(cis-2-Hydroxy-2-methylcyclopentyloxy)-3-(4-methylsulfonyl)phenyl-5-trifluoromethylpyridine], the IC50 on COX-1 [3] (setting [5]) is more than 0.1 mM; at COX-1 [4] (setting [6]), more than 0.01 mM.
As to `CS(=O)(=O)c1ccc(-c2cc(C(F)(F)F)cnc2OCC2(O)CC2)cc1` [Example 11, 2-(1-Hydroxycyclopropyl)methoxy-3-(4-methylsulfonyl)phenyl-5-trifluoromethylpyridine], the 50% inhibitory concentration (IC50) was found to be 0.09 µM at COX-2 [1], 0.0016 mM at COX-2 [2] and 0.01 mM at COX-1 [4] (setting [6]).
On the same counts, the results for `C[C@]1(O)CCC[C@H]1Oc1ncc(C(F)(F)F)cc1-c1ccc(S(N)(=O)=O)cc1` (relative stereo) [Example 33, 3-(4-aminosulfonyl)phenyl-2-(cis-2-hydroxy-2-methylcyclopentyloxy)-5-trifluoromethylpyridine] are 0.04 µM, 0.0037 mM and 0.01 mM.
Taken in the same sequence, the figures for `CC(C)(O)CSc1ncc(Cl)cc1-c1ccc(S(C)(=O)=O)cc1` [Example 44, 5-Chloro-2-(2-Hydroxy-2-methyl-1-thiopropyloxy)-3-(4-methylsulfonyl)phenylpyridine] were 0.04 µM, 0.0015 mM and more than 0.01 mM.
